The source of these data is patent US3989714A, “3-Phenylhydroindoles” (priority 1974, dated 1976).

Each structure is given as a SMILES string. “And” between values parts separate entries of the source, which are not always exact repeats. Equal values may be shown once. Where a name gives a salt, the structure may show the parent alone.

In data set [1] the test system is HeLa. Put plainly: Cytotoxicity, solid media (disc), zones of cytotoxicity. The data set is classed as cell-based, Human. As to conditions: Day 5, 100 mcg disc. The source says:
(§1) Compounds of the present invention show antiviral activity in concentrations of 50 to 100 γ/ml when tested in liquid media using the procedure of Rightsel (Univ. of Mich. Med. Bull. 24:222-234 (1958)) and on solid media using the Herrmann modification of the Dulbecco Technique (Proc. Nat. Acad. Sci., Wash. 38:747-752 (1952); Proc. Soc. Exp. Bio., N.Y., 103: 625-628 (1960)).
(§2) The procedure for the Herrmann modification used is as follows:
(§3) TEST NAME: Antiviral Activity, Solid Media
(§4) PURPOSE: The determination of toxicity and antiviral activity
(§5) of experimental compounds in normal and cancer cell
(§6) lines as measured by plaque suppression in solid media.
(§7) MATERIALS: Cell Line - Cancer
(§8) HeLa - Human carcinoma of the cervix
(§9) Roller bottles are seeded with approximately 10^7 cells
in 250-300 ml of growth medium and rotated at 0.5 rpm on
(§10) the Bellco roller apparatus at 37° C until the cell
Cells are removed from the glass surface with trypsin.
The cells are resuspended in medium to a concentration
of 2.0 × 10^5 /ml. Falcon plastic 60 × 15 mm
seeded with 5.0 ml of cell suspension and incubated for
48 hours at 37° C in Pyrex baking dishes sealed with
Water-soluble compounds are prepared in distilled water
with the aid of HCl or NaOH as necessary. Solutions
are Millipore filtered. Water insoluble compounds are
Sterile Schleicher and Schuell 1/4" penicillin assay […]
(§11) measured across the entire diameter (including disc).

Data set [2] in a line: in vitro. The data set is classed as cell-based, Human. Conditions: human, hela cells.
Excerpt: as §1
(§12) More particularly the protocol for the Rightsel procedure used is as follows:
(§13) ANTIVIRAL ACTIVITY TUBE METHOD
(§14) PURPOSE: The determination of toxicity and antiviral activity of
(§15) experimental compounds in normal and cancer cell lines
(§16) in vitro in tubes with liquid culture media.
(§17) MATERIALS: Cell Lines - cancer
(§18) HeLa - Human Carcinoma of the Cervix
as §9
(§19) in […] growth medium and rotated at 0.5 rpm on
as §10
(§20) Trypsinization - Cells are resuspended in growth medium
(§21) at a concentration of […] HeLa cells/ml.
(§22) cell suspensions are gassed with CO2 to a pH of 6.8.
(§23) Sterile plastic tubes are seeded with 1.0 ml of cell
(§24) suspension and incubated in a stationary position for
(§25) two days (until cell sheet is confluent).
(§26) The compound is dissolved in distilled water at a maximum
(§27) concentration of 500 gamma/ml. Where necessary, NaOH,
(§28) HCl or ethanol is used to dissolve the material. The
(§29) pH of the final solution is adjusted as closely as
(§30) possible to pH 7.2. This stock solution is then
(§31) diluted with medium to contain appropriate concentrations
(§32) for 1 hour. Cytotoxicity and control tubes are rolled
(§33) with just 0.1 ml of medium. After a 1 hour adsorption
(§34) RECORDING: HeLa cell cultures are read every day, starting on day 3
(§35) and readings are continued until culture controls have
(§36) shown a non-specific cytopathic effect (CPE) in about
(§37) 5-6 days. WI-38 cultures are read every other day,
(§38) Compound cytoxicity is recorded as 0 - 4+, depending
(§39) on the degree and nature of the CPE. Viral CPE is
(§40) the cell sheet showing virus growth. Four tubes are
(§41) used for each concentration of compound and for each
(§42) concentration of virus dilution, and the four CPE
(§43) ratings within each group are averaged.

Data set [3] relates to HeLa. Put plainly: in vitro. The data set is classed as cell-based, Human.
Excerpt: as §1, §12, §13, §14, §15, §16, §17, §18, §9, §19, §10, §20, §21, §22, §23, §24, §25, §26, §27, §28, §29, §30, §31, §32, §33, §34, §35, §36, §37, §38, §39, §40, §41, §42, §43

Data set [4] deals with Rhinovirus 2 (HGP). Put plainly: Antiviral Activity, Solid Media (Herrmann modification of the Dulbecco technique), plaque suppression by disc, HeLa cells. The data set is classed as cell-based. Conditions: Rhinovirus 2 HGP adsorbed, Day 5, 100 mcg disc, virus 66 PFU/ml (Example 4), 970 PFU/ml (Example 7).
Excerpt: as §1, §2, §3, §4, §5, §6, §7, §8
(§44) Virus - Rhinovirus 2 (HGP)
Growth Medium - Basal Medium Eagle (BME) containing 10 %
fetal bovine serum, penicillin (100 units/ml)
and streptomycin (100 mcg/ml).
Trypsin - (1-300) 0.25 % trypsin in Ca-free and Mg-free
Hanks' balanced salt solution (BSS).
(1) Rhinovirus: A 1:1 mixture of BME and
Medium 199. Contains 2 % fetal bovine serum
(FBS); 30 mM MgCl2; 0.3 % Tris; 30 gamma/ml
diethylaminoethyl (DEAE) dextran and 1 %
Wash Fluid - Phosphate-buffered saline (PBS) containing
Discs - Sterile Schleicher and Schuell 1/4"
penicillin assay discs.
Plates - Falcon plastic 60 × 15 mm dishes. […]
as §11
The number of plaques on titration plates are counted to […]

The test system of data set [5] is Rhinovirus 2 (HGP). Nature of the data set: Antiviral activity tube method (Rightsel procedure), liquid media, HeLa cells. It is filed as cell-based. Conditions: for Antiviral: concentration at which active, Day 4: 20 TCID50 (Example 7).
Excerpt: as §1, §12, §13, §14, §15, §16, §17, §18, §44
Growth Medium - Basal Medium Eagle (BME) with Earle's
salts, containing 10 % fetal bovine serum,
penicillin (100 units/ml.) and
streptomycin (100 mcg./ml.)
Maintenance Medium - A 1:1 mixture of BME and Medium
199; contains 2 % fetal bovine serum.
Trypsin - (1-300) 0.25 % in Ca-free and Mg-free
Hanks' balanced salt solution (BSS)
Roller Bottles - Bellco
Tubes - Sterile 16 × 150 mm plastic screw top
as §9, §19, §10, §20, §21, §22, §23, §24, §25, §26, §27, §28, §29, §30, §31
The virus is thawed rapidly at 37° C and diluted
in maintenance medium - to 10-^8 for titration and to an
estimated 10 - 100 Tissue Culture Infectious Dose50
PROCEDURE: The growth medium is decanted from the cell sheet in the
Adsorbed virus system: 0.1 ml of virus dilution is added
to each of the tubes and the tubes are rolled at 33°
as §32, §33
period, 0.9 ml of the appropriate dilution of the test
compound is added to each of the tubes and the tubes
are returned to the roller apparatus.
Unadsorbed virus system: 0.1 ml of the diluted virus and
0.9 ml of the diluted test compound are added simultaneously
to a tube and the tubes rotated at 33° C.
as §34, §35, §36, §37
starting with day 3, for 10-14 days.
as §39
also recorded as 0 - 4+, depending on the percent of
as §40, §41, §42, §43
To be considered active, a specific concentration of a test
compound must average 2 or more points below that of the
virus control. Actual TCID50 of virus used is
by method of Reed and Muench.

As for `COc1ccc(C2CN(O)C3(C)CCCCC23)cc1OC` (stereo not shown) [Example 7, 3-(3,4-Dimethoxyphenyl)hexahydro-1-hydroxy-7a-methyl-indoline], the “Cytotoxicity, disc” value in data set [1] is given as “Nontoxic”. In data set [2], this compound displayed an MCC at 120 h of 100 µg/mL and an MNTC at 96 h of 100 µg/mL. In data set [3], the “toxic effect of undetermined origin, day 5” value is “very slight toxic effect”. Moreover, the “Antiviral, disc” value in data set [4] is “inactive”. In addition, the “Antiviral: concentration at which active, Day 4” value in data set [5] (Tube, HeLa, Rhinovirus 2 HGP nonadsorbed, virus 31 TCID50 (Example 13), 100 TCID50 (Example 4), active = averages 2 or more points below virus control) is 100 µg/mL and 50 µg/mL. The “Antiviral: concentration at which active, Day 5” value in data set [5] (Tube, HeLa, Rhinovirus 2 HGP nonadsorbed, Day 5, 20 TCID50, active = averages 2 or more points below virus control) is 100 µg/mL and 50 µg/mL. Further, in data set [5] (liquid system, both the 4th and 5th days of incubation), the “antiviral activity in the liquid system on 4th and 5th days” value is on record as “showed activity at two concentrations”.

For the compound `COc1ccc(C2CN(O)C3CCCCC23)cc1OC` (stereo not shown) [Example 4, 3-(3,4-dimethoxyphenyl)hexahydro-1-hydroxyindoline hydrochloride], in data set [1], the “Cytotoxicity, disc” value is “Nontoxic”. The compound further yielded an MNTC at 96 h in data set [2] of 100 µg/mL. For the same compound, in data set [3], the “Cytotoxicity: concentration at which toxic, Day 5” value was 100-12.5 and the “toxic effect on the cells” value was “undetermined toxic effect on the cells was observed”. In data set [4] (hydrochloride), the “Antiviral, disc” value is “inactive”. In data set [5] (Tube, HeLa, Rhinovirus 2 HGP nonadsorbed, virus 31 TCID50 (Example 13), 100 TCID50 (Example 4), active = averages 2 or more points below virus control, hydrochloride), the “Antiviral: concentration at which active, Day 4” value is 100 µg/mL and 50 µg/mL. The “Antiviral: concentration at which inactive, Day 5” value in data set [5] (Tube, HeLa, Rhinovirus 2 HGP nonadsorbed, Day 5, virus 31 TCID50 (Example 13), 100 TCID50 (Example 4)) was 6.25 µg/mL.

As to `COc1ccccc1C1C[N+]([O-])=C2CCCCC21.Cl` (stereo not shown) [Example 13, 3,3a,4,5,6,7-hexahydro-3-(o-methoxyphenyl)-2H-indole 1-oxide hydrochloride], the MNTC at 96 h in data set [2] was 108 µg/mL. Also, in data set [3], the “Cytotoxicity: concentration at which toxic, Day 5” value is 108-10.5 and the “toxic effect on the cells” value is listed as “undetermined toxic effect on the cells was observed”. Also, the “antiviral activity after four days of incubation, liquid test” value in data set [5] (liquid test, four days of incubation) is “showed antiviral activity”.
